The values below come from US9518018B2, “3-alkoxy, thioalkyl and amino-4-amino-6-(substituted)picolinates and their use as herbicides” (Dow AgroSciences LLC, priority 2011, dated 2016).

Holding throughout (experiment): Post-Emergent Test I herbicidal activity
Holding throughout (assay type): in vivo

Test [1] has as its system EPHHL: wild poinsettia (Euphorbia heterophylla). The note with it: post-emergence, 336 h, read-out: Visual Growth Reduction (%)-14 Days after Application EPHHL; for pest or weed control at 140 g/ha: Table 3, 140 g ai/ha; for pest or weed control at 70 g/ha: Table 3, 70 g ai/ha. Here is the method:
(§1) Seeds or nutlets of the desired test plant species were planted in Sun Gro Metro-Mix® 360 planting mixture, which typically has a pH of 6.0 to 6.8 and an organic matter content of about 30 percent, in plastic pots with a surface area of 64 square centimeters. When required to ensure good germination and healthy plants, a fungicide treatment and/or other chemical or physical treatment was applied. The plants were grown for 7-21 d in a greenhouse with an approximate 15 h photoperiod which was maintained at about 23-29° C. during the day and 22-28° C. during the night. Nutrients and water were added on a regular basis and supplemental lighting was provided with overhead metal halide 1000-Watt lamps as necessary. The plants were employed for testing when they reached the first or second true leaf stage.
(§2) A weighed amount, determined by the highest rate to be tested, of each test compound was placed in a 25 mL glass vial and was dissolved in 4 mL of a 97:3 v/v mixture of acetone and DMSO to obtain concentrated stock solutions. […] The concentrated stock solutions obtained were diluted with 20 mL of an aqueous mixture containing acetone, water, isopropyl alcohol, DMSO, Atplus 411F crop oil concentrate, and Triton® X-155 surfactant in a 48.5:39:10:1.5:1.0:0.02 v/v ratio to obtain spray solutions containing the highest application rates. Additional application rates were obtained by serial dilution of 12 mL of the high rate solution into a solution containing 2 mL of 97:3 v/v mixture of acetone and DMSO and 10 mL of an aqueous mixture containing acetone, water, isopropyl alcohol, DMSO, Atplus 411F crop oil concentrate, and Triton X-155 surfactant in a 48.5:39:10:1.5:1.0:0.02 v/v ratio to obtain ½×, ¼×, ⅛× and 1/16× rates of the high rate. Compound requirements are based upon a 12 mL application volume at a rate of 187 liters per hectare (L/ha). Formulated compounds were applied to the plant material with an overhead Mandel track sprayer equipped with 8002E nozzles calibrated to deliver 187 L/ha over an application area of 0.503 square meters at a spray height of 18 inches (43 cm) above the average plant canopy height. Control plants were sprayed in the same manner with the solvent blank.
(§3) The treated plants and control plants were placed in a greenhouse as described above and watered by subirrigation to prevent wash-off of the test compounds. After 14 d, the condition of the test plants as compared with that of the untreated plants was determined visually and scored on a scale of 0 to 100 percent where 0 corresponds to no injury and 100 corresponds to complete kill.
(§4) By applying the well-accepted probit analysis as described by J. Berkson in Journal of the […], 48, 565 (1953) and by D. Finney in “Probit Analysis” Cambridge University Press (1952), the above data can be used to calculate GR20, GR50 and GR80 values, which are defined as growth reduction factors that correspond to the effective dose of herbicide required to kill or control 20 percent, 50 percent or 80 percent, respectively, of a target plant.

Test [2] concerns CHEAL: lambsquarters (Chenopodium album). To be noted: Chenopodium album, post-emergence, 336 h, read-out: Visual Growth Reduction (%)-14 Days after Application CHEAL; for pest or weed control at 140 g/ha: Table 3, 140 g ai/ha; for pest or weed control at 70 g/ha: Table 3, 70 g ai/ha. Here is the method: as §1, §2, §3, §4
Test [3] relates to CYPES: yellow nutsedge (Cyperus esculentus). To be noted: post-emergence, 336 h, read-out: Visual Growth Reduction (%)-14 Days after Application CYPES; for pest or weed control at 140 g/ha: Table 3, 140 g ai/ha; for pest or weed control at 70 g/ha: Table 3, 70 g ai/ha. As for the experimental part: as §1, §2, §3, §4
Another test concerns ZEAMX: corn (Zea mays). To be noted: Zea mays, post-emergence, 336 h, read-out: Visual Growth Reduction (%)-14 Days after Application ZEAMX; for pest or weed control at 140 g/ha: Table 3, 140 g ai/ha; for pest or weed control at 70 g/ha: Table 3, 70 g ai/ha. Here is the method: as §1, §2, §3, §4
Test [4] deals with ORYSA: rice (Oryza sativa). To be noted: post-emergence, 336 h, read-out: Visual Growth Reduction (%)-14 Days after Application ORYSA; for pest or weed control at 140 g/ha: Table 3, 140 g ai/ha; for pest or weed control at 70 g/ha: Table 3, 70 g ai/ha. As for the experimental part: as §1, §2, §3, §4
The subject of test [5] is ECHCG: barnyardgrass (Echinochloa crus-galli). The note with it: post-emergence, 336 h, read-out: Visual Growth Reduction (%)-14 Days after Application ECHCG; for pest or weed control at 140 g/ha: Table 3, 140 g ai/ha; for pest or weed control at 70 g/ha: Table 3, 70 g ai/ha. As for the experimental part:
as §1, §2, §3, §4

For test [6], the system named is ABUTH: velvetleaf (Abutilon theophrasti). The note with it: Abutilon theophrasti, post-emergence, 336 h, read-out: Visual Growth Reduction (%)-14 Days after Application ABUTH; for pest or weed control at 140 g/ha: Table 3, 140 g ai/ha; for pest or weed control at 70 g/ha: Table 3, 70 g ai/ha. Here is the method:
as §1, §2, §3, §4

The structures appear in SMILES notation.

As for `COC(=O)c1nc(-c2ccc(I)c(F)c2F)c(F)c(N)c1OC` [Compound 24], the pest or weed control at 140 g/ha worked out at 100% in test [1]; 65% in test [2]; 100% in test [3]; 75% in the test with ZEAMX: corn (Zea mays); 0% in test [4]; 50% in test [5]. In addition, in test [6], the pest or weed control at 140 g/ha was 60%.
Take `COC(=O)c1nc(-c2ccc(I)cc2F)c(F)c(N)c1OC` [Compound 26]: the pest or weed control at 140 g/ha in test [1] came out at 100%; in test [2], 90%; in test [3] it was 50%; in the test on ZEAMX: corn (Zea mays), 75%; in test [4], 0%; in test [5], 55%. Also, the pest or weed control at 140 g/ha in test [6] was found to be 10%.
`COC(=O)c1nc(-c2ccc(I)c(F)c2)c(F)c(N)c1OC` [Compound 27]: the pest or weed control at 140 g/ha in test [1] was found to be 100%; in test [2], 90%; in test [3] it was 100%; in the test on ZEAMX: corn (Zea mays), 70%; in test [4], 0%; in test [5], 60%. The pest or weed control at 140 g/ha in test [6] amounted to 60%.
As to `C#Cc1ccc(-c2nc(C(=O)OC)c(OC)c(N)c2F)cc1` [Compound 30, methyl 4-amino-6-(4-ethynylphenyl)-5-fluoro-3-methoxypicolinate], the pest or weed control at 140 g/ha in test [1] came out at 100%; in test [2], 100%; in test [3], 100%; in the test with ZEAMX: corn (Zea mays), 70%; in test [4], 0%; in test [5] it was 0%. In addition, in test [6], the pest or weed control at 140 g/ha was determined as 50%.
With `COC(=O)c1nc(-c2ccc(Cl)c(C(C)F)c2F)c(F)c(N)c1OC` (stereo not drawn) [Compound 33, methyl 4-amino-6-(4-chloro-2-fluoro-3-(1-fluoroethyl)phenyl)-5-fluoro-3-methoxypicolinate], the pest or weed control at 140 g/ha in test [1] turned out to be 100%; in test [2] it was 100%; in test [3], 100%; in the test on ZEAMX: corn (Zea mays), 70%; in test [4], 0%; in test [5], 80%. In test [6], the pest or weed control at 140 g/ha was 100%.
Consider `COC(=O)c1nc(-c2ccc(C#N)cc2)c(F)c(N)c1OC` [Compound 41], for which the pest or weed control at 140 g/ha was 100% in test [1]; 100% in test [2]; 100% in test [3]; 70% with ZEAMX: corn (Zea mays); 0% in test [4]; 0% in test [5]. Besides, the pest or weed control at 140 g/ha in test [6] amounted to 80%.
As to `COC(=O)c1nc(-c2ccc3c(c2F)OCO3)c(F)c(N)c1OC` [Compound 42], the pest or weed control at 140 g/ha in test [1] was 100%; in test [2], 90%; in test [3], 10%; in the test with ZEAMX: corn (Zea mays), 75%; in test [4], 0%; in test [5], 0%. For the same compound, the pest or weed control at 140 g/ha in test [6] amounted to 60%.
As to `COc1c(C(=O)O)nc(Cl)c(F)c1N` [Compound 51], the pest or weed control at 70 g/ha worked out at 100% in test [1]; 90% in test [2]; 0% in test [3]; 0% with ZEAMX: corn (Zea mays); 0% in test [4]; 0% in test [5]. For the same compound, in test [6], the pest or weed control at 70 g/ha came out at 0%.
Turning to `COc1c(C(=O)O)nc(-c2ccc(Br)c(F)c2F)c(F)c1N` [Compound 54], the pest or weed control at 70 g/ha in test [1] stood at 100%; in test [2], 90%; in test [3], 100%; in the test with ZEAMX: corn (Zea mays), 85%; in test [4], 5%; in test [5], 90%. Moreover, the pest or weed control at 70 g/ha in test [6] came to 90%.
`COc1c(C(=O)O)nc(-c2ccc(I)cc2)c(F)c1N` [Compound 55]: the pest or weed control at 132 g/ha in test [1] (Table 3, 132 g ai/ha) came to 100%; in test [2] (Table 3, 132 g ai/ha), 90%; in test [3] (Table 3, 132 g ai/ha), 100%; with ZEAMX: corn (Zea mays) (Table 3, 132 g ai/ha) it was 80%; in test [4] (Table 3, 132 g ai/ha), 10%; in test [5] (Table 3, 132 g ai/ha), 100%. The pest or weed control at 132 g/ha in test [6] (Table 3, 132 g ai/ha) was 85%.
Take `COc1c(C(=O)O)nc(-c2ccc(Br)cc2F)c(F)c1N` [Compound 61]: the pest or weed control at 140 g/ha amounted to 100% in test [1]; 100% in test [2]; 100% in test [3]; 75% with ZEAMX: corn (Zea mays); 10% in test [4]; 95% in test [5]. Besides, in test [6], the pest or weed control at 140 g/ha is 80%.
For `COc1c(C(=O)O)nc(-c2ccc(Cl)c(C(C)F)c2F)c(F)c1N` (stereo not drawn) [Compound 65], the pest or weed control at 140 g/ha came out at 100% in test [1]; 100% in test [2]; 100% in test [3]; 70% with ZEAMX: corn (Zea mays); 0% in test [4]; 65% in test [5]. In addition, the pest or weed control at 140 g/ha in test [6] worked out at 100%.
